25 compounds from US20240279202A1 (NURIX THERAPEUTICS, INC., priority 2021, published 2024) can be followed below.

The structures appear in SMILES notation.

For the test, the target named is T1, ITK (Homo sapiens, UniProt Q08881).
T1 sequence (Q08881 1-620): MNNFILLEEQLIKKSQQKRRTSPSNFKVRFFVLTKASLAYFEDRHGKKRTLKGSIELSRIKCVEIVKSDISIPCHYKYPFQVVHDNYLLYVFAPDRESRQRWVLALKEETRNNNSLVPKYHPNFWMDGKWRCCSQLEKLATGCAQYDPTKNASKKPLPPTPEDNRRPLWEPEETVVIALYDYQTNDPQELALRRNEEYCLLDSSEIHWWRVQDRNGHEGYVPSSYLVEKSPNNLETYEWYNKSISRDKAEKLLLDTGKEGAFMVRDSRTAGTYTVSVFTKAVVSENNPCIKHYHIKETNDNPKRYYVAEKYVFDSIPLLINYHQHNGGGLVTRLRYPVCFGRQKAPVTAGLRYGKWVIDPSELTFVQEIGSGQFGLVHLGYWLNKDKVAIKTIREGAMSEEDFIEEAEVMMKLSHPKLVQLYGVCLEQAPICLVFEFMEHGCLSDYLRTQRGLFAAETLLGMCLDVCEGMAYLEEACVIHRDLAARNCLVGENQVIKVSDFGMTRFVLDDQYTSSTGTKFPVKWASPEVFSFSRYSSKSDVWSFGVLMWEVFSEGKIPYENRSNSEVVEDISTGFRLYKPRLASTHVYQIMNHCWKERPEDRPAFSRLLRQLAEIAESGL
Description: ITK degradation HiBiT assay. The class given is cell-based. Details: expressed in transfected cells; host or cells: Molt4 (ATCC CRL-1552), monoclonal clone 1C10, engineered to carry the HiBiT tag. Conditions: 4 hrs; for DC50: C-terminal HiBiT-tagged Molt4 cells; for Dmax: MOLT-4, C-terminal HiBiT-tagged Molt4 cells. Here is the method: Itk Degradation Hibit Assay
Compounds provided herein were assayed in vitro with ITK HiBit cell lines. Compound dilution series (11-point, 5 fold dilutions in DMSO, columns 2-12 with replicate in rows A/B, C/D, E/F, G,H at 2000× the final required concentrations were prepared in 96 well plates (Falcon, cat. no. 353077). Column 1, rows A-H were control DMSO. The 2000× solutions ranged from 2 mM to 1.024 nM (final assay concentration range 1 μM to […]). The 2000× solutions were added to cells in […], for a final DMSO concentration of 0.5% and final assay compound concentration of 1×. For the cells, C-terminal HiBiT-tagged Molt4 cells (ATCC CRL-1552, monoclonal cell line clone 1C10) were plated at 1×10^6 cells/mL, 100 μL/well ([…]) in complete RPMI (10% FBS, 1% L-glutamine). The cells were incubated with compound 10 and compound 17 for 4 hrs at […]/6% CO2.
Following incubation, 100 μL of complete Nano-Glo HiBiT Lytic Detection Reagent (Nano-Glo HiBiT Lytic Buffer with 1:50 Nano-Glo HiBiT Lytic Substrate and 1:100 LgBiT Protein; Promega cat. no. N3040) was added. Cells were further incubated for 10 min at room temperature (RT). Luminescence units (LU) were read on an EnVision plate reader (Perkin Elmer, 0.1 sec per well). Percent ITK remaining per sample was calculated as follows: […]
Using Graphpad Prism, % ITK remaining values were plotted as a function of compound concentration. To determine DC50 and Dmax values, resulting curves were fit to the Prism curve-fitting equation “log(inhibitor) vs response—Variable slope (four parameters)” (reported best fit value IC50 used as DC50). ITK was measured with antibody-based MSD (Meso-Scale Discovery) assays shown below.
For orientation: HiBiT is a short tag that completes a luciferase, so light tracks the accessible tagged protein.

For orientation: DC50 means the concentration giving 50% degradation. Read a low DC50 as a more potent degrader. As a reminder, the Dmax is the largest share of the target that was removed. High values mean a fuller loss of target, low ones a partial loss of target. `C[C@@]12Cc3[nH]nc(C(=O)Nc4cnn([C@H]5CC[C@H](CN6CCN(c7ccc(C(=O)NC8CCC(=O)NC8=O)nc7)CC6)CC5)c4)c3C[C@@H]1C2(F)F` (mixture of isomers) [Compound 127, N-[(3SR)-2,6-dioxopiperidin-3-yl]-5-(4-{[(1rs,4rs)-4-{4-[(4aS,5aR)-5,5-difluoro-5a-methyl-1H,4H,4aH,5H,5aH,6H-cyclopropa[f]indazole-3-amido]-1H-pyrazol-1-yl}cyclohexyl]methyl}piperazin-1-yl)pyridine-2-carboxamide] yielded a half-maximal degradation concentration (DC50) of 19.1 nM and a Dmax of 69%.
The compound `C[C@H]1CN(C(=O)c2ccc3cc(-c4n[nH]c5c4CCC(C)(C)C5)[nH]c3c2)CCN1CC1CCN(c2ccc(C3CCC(=O)NC3=O)cc2)CC1` (mixture of isomers) [Compound 152] gave a maximal degradation (Dmax) of 80%.
On to `C[C@H]1CN(C(=O)c2ccc3cc(-c4n[nH]c5c4C[C@@H]4C(F)(F)[C@]4(C)C5)[nH]c3c2)CCN1CC1CCN(c2ccc(C3CCC(=O)NC3=O)cc2)CC1` (mixture of isomers) [Compound 153], for which the Dmax turned out to be 80%.
Consider `C[C@@]12Cc3[nH]nc(-c4cc5ccc(C(=O)N6CC7CCC(C6)N7CC6CCN(c7ccc(C8CCC(=O)NC8=O)cc7)CC6)cc5[nH]4)c3C[C@@H]1C2(F)F` (mixture of isomers) [Compound 154], for which the greatest degradation seen (Dmax) came to 76%.
The same measure, in the same setting: for `C[C@H]1CN(C(=O)c2ccc3cc(-c4n[nH]c5c4C[C@@H]4C(F)(F)[C@]4(C)C5)[nH]c3c2)CCN1CC1CCN(c2ccc(C3CCC(=O)NC3=O)cc2F)CC1` (mixture of isomers) [Compound 155] the value was 84%.
Still for that read-out and setting: for `C[C@@]12Cc3[nH]nc(C(=O)Nc4cnn(C5CCN(C(=O)[C@H]6CC[C@H](Cn7ncc8cc(C9CCC(=O)NC9=O)ccc87)CC6)CC5)c4)c3C[C@@H]1C2(F)F` (mixture of isomers) [Compound 164] the value was 86%.
With `C[C@@]12Cc3[nH]nc(C(=O)Nc4cnn(C5CCN(C(=O)C6CCC(Cn7cc8cc(C9CCC(=O)NC9=O)ccc8n7)CC6)CC5)c4)c3C[C@@H]1C2(F)F` (mixture of isomers) [Compound 165], the greatest degradation seen (Dmax) was found to be 86%.
On the same count and under the same terms, for `C[C@@]12Cc3[nH]nc(C(=O)Nc4cnn(C5CCN(C(=O)CC6CCN(c7ccc(C8CCC(=O)NC8=O)cn7)CC6)CC5)c4)c3C[C@@H]1C2(F)F` (mixture of isomers) [Compound 166] the value was 88%; for `C[C@@]12Cc3[nH]nc(C(=O)Nc4cnn(C5CCN(C(=O)C6CCN(c7ccc(C8CCC(=O)NC8=O)cn7)C6)CC5)c4)c3C[C@@H]1C2(F)F` (mixture of isomers) [Compound 167], 86%; for `C[C@@]12Cc3[nH]nc(C(=O)Nc4cnn(C5CCN(C(=O)C6CCC(Oc7ccc(C8CCC(=O)NC8=O)cn7)CC6)CC5)c4)c3C[C@@H]1C2(F)F` (mixture of isomers) [Compound 168], 88%.
Take `Cn1c(=O)n(C2CCC(=O)NC2=O)c2ccc(N[C@H]3CC[C@H](C(=O)N4CCC(n5cc(NC(=O)c6n[nH]c7c6C[C@@H]6C(F)(F)[C@]6(C)C7)cn5)CC4)CC3)cc21` (mixture of isomers) [Compound 169]: the greatest degradation seen (Dmax) worked out at 80%.
Same read-out and setting: for `Cn1c(=O)n(C2CCC(=O)NC2=O)c2cccc(N3CCC(C(=O)N4CCC(n5cc(NC(=O)c6n[nH]c7c6C[C@@H]6C(F)(F)[C@]6(C)C7)cn5)CC4)CC3)c21` (mixture of isomers) [Compound 171] the value was 88%; for `C[C@@]12Cc3[nH]nc(C(=O)Nc4cnn(CC5CCN(C(=O)C6CCN(c7ccc(C8CCC(=O)NC8=O)cc7)CC6)CC5)c4)c3C[C@@H]1C2(F)F` (mixture of isomers) [Compound 173], 87%.
`CC1(C)CCc2c(C(=O)Nc3cnn([C@H]4CC[C@H](C(=O)N5CCN(c6ccc(C7CCC(=O)NC7=O)cn6)CC5)CC4)c3)n[nH]c2C1` (mixture of isomers) [Compound 175] showed a Dmax of 65%.
On the same count and under the same terms, for `CC1(C)CCc2c(C(=O)Nc3cnn([C@H]4CC[C@H](C(=O)N5CCN(c6ccc(C7CCC(=O)NC7=O)cc6)CC5)CC4)c3)n[nH]c2C1` (mixture of isomers) [Compound 176] the value was 76%; for `C[C@@]12Cc3[nH]nc(C(=O)Nc4cnn(C5CCC(C(=O)N6CCN(c7ccc(C8CCC(=O)NC8=O)cc7)CC6)CC5)c4)c3C[C@@H]1C2(F)F` (mixture of isomers) [Compound 179], 88%.
Same read-out and setting: for `C[C@@]12Cc3[nH]nc(C(=O)Nc4cnn(C5CCN(C(=O)C6CCN(c7ccc(C(=O)NC8CCC(=O)NC8=O)nc7)CC6)CC5)c4)c3C[C@@H]1C2(F)F` (mixture of isomers) [Compound 180] the value was 72%.
Take `C[C@@]12Cc3[nH]nc(C(=O)Nc4cnn([C@H]5CCN(CC6CCN(c7ccc([C@H]8CCC(=O)NC8=O)cc7)CC6)C[C@@H]5F)c4)c3C[C@@H]1C2(F)F` (single isomer, unassigned) [Compound 95]: the DC50 stood at 0.6 nM and the Dmax came to 90%.
In the case of `C[C@@]12Cc3[nH]nc(C(=O)Nc4cnn([C@@H]5CCN(CC6CCN(c7ccc([C@H]8CCC(=O)NC8=O)cc7)CC6)C[C@H]5F)c4)c3C[C@@H]1C2(F)F` (single isomer, unassigned) [Compound 96], the DC50 turned out to be 1.1 nM and the maximal degradation (Dmax) was determined as 89%.
The matching figures for `C[C@@]12Cc3[nH]nc(-c4cc5cc(F)c(C(=O)N6CCN(CC7CCN(c8ccc([C@H]9CCC(=O)NC9=O)cc8)CC7)CC6)cc5[nH]4)c3C[C@@H]1C2(F)F` (single isomer, unassigned) [Compound 220]: 1.4 nM and 89%.
Take `CC1(C)CCc2c(-c3cc4ccc(N5CCC6(CCN(Cc7ccc8c(c7)C(=O)N(C7CCC(=O)NC7=O)C8=O)CC6)C5=O)cc4[nH]3)n[nH]c2C1` (stereo not drawn) [Compound 8, 5-((2-(2-(6,6-dimethyl-4,5,6,7-tetrahydro-1H-indazol-3-yl)-1H-indol-6-yl)-1-oxo-2,8-diazaspiro[4.5]decan-8-yl)methyl)-2-(2,6-dioxopiperidin-3-yl)isoindoline-1,3-dione]: half-maximal degradation (DC50) was put at 7.8 nM and the maximal degradation (Dmax) was found to be 92%.
The compound `C[C@@H](C(=O)N(C)c1ccc2cc(-c3n[nH]c4c3C[C@@H]3C(F)(F)[C@]3(C)C4)[nH]c2c1)N1CCN(CC2CCN(c3cc(C4CCC(=O)NC4=O)ccn3)CC2)CC1` (stereo partly drawn) [Compound 23, (2S)—N-(2-((4aS,5aR)-5,5-difluoro-5a-methyl-1,4,4a,5,5a,6-hexahydrocyclopropa[f]indazol-3-yl)-1H-indol-6-yl)-2-(4-((1-(4-(2,6-dioxopiperidin-3-yl)pyridin-2-yl)piperidin-4-yl)methyl)piperazin-1-yl)-N-methylpropanamide] registered a DC50 below 0.001 nM and a Dmax of 82%.
With `C[C@@]12Cc3[nH]nc(-c4cc5ccc(N6CCC7(CCN(C(=O)C8CCN(c9ccc(C%10CCC(=O)NC%10=O)cn9)CC8)CC7)C6=O)cc5[nH]4)c3C[C@@H]1C2(F)F` (stereo partly drawn) [Compound 24, 3-(6-(4-(2-(2-((4aS,5aR)-5,5-difluoro-5a-methyl-1,4,4a,5,5a,6-hexahydrocyclopropa[f]indazol-3-yl)-1H-indol-6-yl)-1-oxo-2,8-diazaspiro[4.5]decane-8-carbonyl)piperidin-1-yl)pyridin-3-yl)piperidine-2,6-dione], it took 0.01 nM to reach half-maximal degradation (DC50).
The compound `CC1(C)CCc2c(-c3cc4ccc(C(=O)N5CCN(CC6CCN(c7ccc8c(c7)CN(C7CCC(=O)NC7=O)C8=O)CC6)CC5)cc4[nH]3)n[nH]c2C1` (stereo not drawn) [Compound 26, 3-{5-[4-({4-[2-(6,6-dimethyl-1,4,5,7-tetrahydroindazol-3-yl)-1H-indole-6-carbonyl]piperazin-1-yl}methyl)piperidin-1-yl]-1-oxo-3H-isoindol-2-yl}piperidine-2,6-dione] gave a DC50 below 0.01 nM and a Dmax of 88%.
`C[C@@]12Cc3[nH]nc(C(=O)Nc4cnn([C@H](c5ccccc5)C5CN(C(=O)N6CCC7(CCN(c8ccc9c(c8)C(=O)N(C8CCC(=O)NC8=O)C9=O)CC7)C6)C5)c4)c3C[C@@H]1C2(F)F` (stereo partly drawn) [Compound 53] gave a DC50 of 3.3 nM and a maximal degradation (Dmax) of 94%.
